Results from publication PMC8787815 (2022).

System: 6xHis mCherry F30-2xdBroccoli mRNA transcript (RNA, aptamer) GGGAGACCACAACGGUUUCCCUCUAGAAAUAAUUUUGUUUAACUUUAAGAAGGAGAUAUACCAUGUCUGGUUCUCAUCAUCAUCAUCAUCAUGGUAGCAGCGGCGAAAACCUGUAUUUUCAGUCCAUGGUGAGCAAGGGCGAGGAGGAUAACAUGGCCAUCAUCAAGGAGUUCAUGCGCUUCAAGGUGCACAUGGAGGGCUCCGUGAACGGCCACGAGUUCGAGAUCGAGGGCGAGGGCGAGGGCCGCCCCUACGAGGGCACCCAGACCGCCAAGCUGAAGGUGACCAAGGGUGGCCCCCUGCCCUUCGCCUGGGACAUCCUGUCCCCUCAGUUCAUGUACGGCUCCAAGGCCUACGUGAAGCACCCCGCCGACAUCCCCGACUACUUGAAGCUGUCCUUCCCCGAGGGCUUCAAGUGGGAGCGCGUGAUGAACUUCGAGGACGGCGGCGUGGUGACCGUGACCCAGGACUCCUCCCUGCAGGACGGCGAGUUCAUCUACAAGGUGAAGCUGCGCGGCACCAACUUCCCCUCCGACGGCCCCGUAAUGCAGAAGAAGACCAUGGGCUGGGAGGCCUCCUCCGAGCGGAUGUACCCCGAGGACGGCGCCCUGAAGGGCGAGAUCAAGCAGAGGCUGAAGCUGAAGGACGGCGGCCACUACGACGCUGAGGUCAAGACCACCUACAAGGCCAAGAAGCCCGUGCAGCUGCCCGGCGCCUACAACGUCAACAUCAAGUUGGACAUCACCUCCCACAACGAGGACUACACCAUCGUGGAACAGUACGAACGCGCCGAGGGCCGCCACUCCACCGGCGGCAUGGACGAGCUGUACAAGGGCAGCUAAAGGGUGAUCUUGCCAUGUGUAUGUGGGAGACGGUCGGGUCCAUCUGAGACGGUCGGGUCCAGAUAUUCGUAUCUGUCGAGUAGAGUGUGGGCUCAGAUGUCGAGUAGAGUGUGGGCUCCCACAUACUCUGAUGAUCCAGACGGUCGGGUCCAUCUGAGACGGUCGGGUCCAGAUAUUCGUAUCUGUCGAGUAGAGUGUGGGCUCAGAUGUCGAGUAGAGUGUGGGCUGGAUCAUUCAUGGCAACGGCUGCUAACAAAGCCCGAAAGGAAGCUGAGUUGGCUGCUGCCACCGCUGAGCAAUAACUAGCAUAACCCCUUGGGGCCUCUAAACGGGUCUUGAGGGGUUUUUUGCUGAAAGGAGGAACU
Assay: fluorescence activation (in-gel staining; plate reader)
Settings: PURExpress reaction with 10 μM DFHBI, 80.4 mM sucrose, 30 °C; also in-gel DFHBI staining; qualitative

- binding: yes
Compound: CC1=N/C(=C\c2cc(F)c(O)c(F)c2)C(=O)N1C
